The target of the assay is T1, EP2 receptor (Homo sapiens, UniProt P43116).
T1 construct: expressed in transfected cells; host or cells: CHO-K1 cells (ATCC), transient transfection with FuGENE 6
Description: EP2 potency assay (cAMP TR-FRET, LANCE Ultra cAMP kit) in transfected CHO-K1 cells stimulated with PGE2 at EC80. Particulars: Table (V), EP2 antagonism, CHO-K1 cells expressing EP2, PGE2 at EC80. It is filed as cell-based. Here is the method: Compound potency was measured using a cAMP TR-FRET assay. CHO-K1 cells (ATCC) were seeded at a density of 9.75×105 in 6 cm plates, and then on the following day cell media was changed to Opti-Mem I reduced serum media (Gibco), and transfected with a plasmid for expression of the EP2 receptor (the target receptor of interest), using the FuGENE 6 Transfection reagent (Promega). After 6 hours incubation, the cell media was replaced with F12 medium supplemented with 10% FBS and 100 U/ml Pen-Strep. 24 hours after transfection, cells were harvested and seeded at a density of 3000 cells/well in a 384 well plate to perform the cAMP assay, using the LANCE Ultra cAMP assay kit (PerkinElmer). For each test compound of interest, 10 nl/well of serially diluted test compound was added to each well, resulting in a range of 10 serially diluted compound concentrations from 10000 nM to 0.038 nM, with duplicate wells for each concentration. Plates were then centrifuged at 1000 rpm for 1 min, agitated at 600 rpm at R.T. for 2 min, and incubated at 25° C. for 5 min. The reference agonist, prostaglandin E2 (MCE), was added to each well at the appropriate concentration to reach its EC80 value. Plates were then centrifuged at 1000 rpm for 1 min, agitated at 600 rpm at R.T. for 2 min, and incubated at 25° C. for 30 min. To measure levels of cAMP, 5 μl/well of Eu-cAMP working solution and 5 μl/well of Ulight-anti-cAMP working solution were added to each well, and the plate was centrifuged at 1000 rpm for 1 min, agitated at 600 rpm at R.T. for 2 min, and incubated at 25° C. for 15 min. Levels of TR-FRET fluorescence were measured in each well using an EnVision microplate reader (excitation wavelength=337 nm and emission wavelength=615 and 665 nm). A dose-response curve was prepared by plotting percent inhibition for each compound concentration, and then IC50 was calculated by fitting a curve to the plotted values and extrapolating the IC50 concentration. […] Potency data is grouped into categories of AA (IC50<100 nM); A (IC50=100 to 500 nM); B (IC50=500 nM to […]); C (IC50=1 μM to 5 μM); and D (IC50>5 μM).
On the technique in general: In TR-FRET formats the signal depends on donor and acceptor labels being close together.

This note sets out measurements from patent US20260234130A1, “EP2 Antagonist Compounds” (Reservoir Neuroscience, Inc., priority 2022, published 2026).

T1 sequence (P43116 whole entry): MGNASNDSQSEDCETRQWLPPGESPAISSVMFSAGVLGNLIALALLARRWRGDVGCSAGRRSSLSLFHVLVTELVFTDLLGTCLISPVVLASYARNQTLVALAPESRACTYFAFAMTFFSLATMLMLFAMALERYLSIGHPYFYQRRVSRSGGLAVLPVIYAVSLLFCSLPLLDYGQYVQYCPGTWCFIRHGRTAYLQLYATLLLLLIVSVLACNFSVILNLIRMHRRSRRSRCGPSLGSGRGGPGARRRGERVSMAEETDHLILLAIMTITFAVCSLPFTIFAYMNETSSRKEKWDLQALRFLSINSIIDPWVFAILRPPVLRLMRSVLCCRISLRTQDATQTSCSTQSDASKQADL

`CS(=O)(=O)Nc1cc(CN2CCOc3c(Cl)cc(-n4ccc5cc(F)ccc54)cc3C2)cnn1` [II-52, N-(5-((9-chloro-7-(5-fluoro-1H-indol-1-yl)-2,3-dihydrobenzo[f][1,4]oxazepin-4(5H)-yl)methyl)pyridazin-3-yl)methanesulfonamide] gave a half-maximal inhibitory concentration (IC50) of less than 100 nM.
`CCOC(=O)c1ncc(CN2CCOc3c(Cl)cc(-n4ccc5c(F)c(F)ccc54)cc3C2)cn1` [II-74, ethyl 5-((9-chloro-7-(4,5-difluoro-1H-indol-1-yl)-2,3-dihydrobenzo[f][1,4]oxazepin-4(5H)-yl)methyl)pyrimidine-2-carboxylate] showed a half-inhibitory concentration (IC50) of less than 100 nM.

Usually IC50 stands for the concentration needed to halve the response being measured. Low values mean greater potency, high ones weaker potency.
